According to US8158389B2, “Products and methods for in vivo secretion of monatin” (priority 2005, dated 2012):
Several values for one entry are separate records, joined by “and”; a condition that tells them apart may be missing. Equal values may be shown once.

What was measured:
[1] = system: E. coli MG1655::aspCproApProNde (control); assay: AcrAB k.o. validation: growth (OD 600 nm) with novobiocin / sodium decanoate, control strain; format: cell-based, Escherichia coli; conditions: sodium decanoate 2.5 mM; novobiocin 0 ppm
Method: Single chloramphenicol-resistant colonies were purified by restreaking on appropriate selective media and single colonies were tested by PCR as previously described for the BW25113 knockout strains, to verify the presence of the emrB and acrAB knockouts. The effects of the emrB and acrAB knockouts on the EmrAB and AcrAB transporter systems respectively were determined by assessing the phenotype of the transport mutants using appropriate antibiotics and comparison to wild type control microorganisms as shown in Table 3.1 and Table 3.2 below.

AcrAB efflux pump = target: T1, AcrAB efflux pump (Escherichia coli, UniProt P31224); assay: Monatin excretion with 2.5 mM sodium decanoate treatment, strains with or without tolC overexpression; format: cell-based; conditions: for Monatin/dry cell weight, 25 hr average / Monatin/dry cell weight, 50 hr average: n = 2
T1 construct: endogenous in cells; host or cells: E. coli BL21 (DE3) with aspCproApET32 plus pProNde with or without tolC
Method: Strains used for the experiment included E. coli BL21 (DE3) : : aspCproApET32 and tolC pProNde or pProNde without tolC. For inoculum, the E. coli strains were grown overnight at 37° C. and 250 rpm in Luria-Bertani (“LB”) medium with 100 μg/mL ampicillin and 50 μg/mL kanamycin.
For the experimental treatments, Trp-1+glucose medium, a minimal medium that has been used for increased production of tryptophan in E. coli cells (Zeman, et al. Folia Microbiol. 35:200-204, (1990)), was prepared as follows. To 800 mL nanopure water the following reagents were added: 2 g (NH4)2SO4 and 13.6 g KE2PO4. The pH was adjusted to 7.0, the volume was increased to 948 mL, and the medium was autoclaved. Following sterilization, 0.2 g MgSO4.7H2O, 0.01 g CaCl2.2H2O, and 0.5 mg FeSO4.7H2O were added to the medium in a 1.8 mL volume followed by addition of 0.2 mL of Neidhardt's micronutrient solution. Neidhardt, F. C., et al., “Culture medium for Enterobacteria,” J. Bacteriol. 119:736-746, (1974). Neidhardt's medium includes (per liter): 0.18 g (NH4)6(MO7)24-4H2O, 1.24 g H3BO3, 0.36 g CoCl2.6H2O, 0.12 g CuSO4 (anhydrous), 0.8 g MnCl2.4H2O, and 0.14 g ZnSO4.7H2O. A 50% glucose solution was prepared separately and sterile-filtered. Forty mL of glucose solution and 10 mL of 1 M 3-Morpholinopropanesulfonic acid (“MOPS”) buffer were added to the base medium (950 mL) for a 1 L final volume.
Conditions for the treatments included 30° C. throughout the experiment and 250 rpm agitation. At 0.4 OD600 nm, induction of the plasmid genes was initiated. At induction, 0.5 mM IPTG, 0.5% arabinose, 0.5 mM pyridoxine hydrochloride, and 0.2 mL of Balch's vitamins (Balch, W. E., et al., “Methanogens: reevaluation of a unique biological group,” Microbiol. Rev. 43:260-296, (1979)) were added. […] Some treatments included 2.5 mM sodium decanoate addition at 3 hours following induction.
The amount of monatin excreted was determined using the method described in Example 13.
In this example, the combination of induction of the AcrAB efflux pump with increased availability of the TolC channels was evaluated. E. coli strains overexpressing the tolC gene were additionally subjected to treatment with 2.5 mM sodium decanoate to simultaneously induce the AcrAB pumps.

E. coli MG1655 ΔAcrAB = assay: Monatin excretion with 2.5 mM sodium decanoate, E. coli MG1655 ΔAcrAB with or without marA (24, 30, 72 h); format: cell-based, Escherichia coli; conditions: n = 2
E. coli BL21 DE3 = assay: Monatin excretion with sodium decanoate, E. coli BL21 DE3 with or without cysH deletion; format: cell-based, Escherichia coli; conditions: 2.5 mM sodium decanoate, n = 2
Method: For inoculum, the E. coli strains BL21 DE3 aspC proA pET32 and BL21 DE3 ΔcysH: : aspCproA pET32 were grown overnight at 37° C. and 250 rpm in Luria-Bertani (“LB”) medium with 100 μg/mL ampicillin.
For the experimental treatments, Trp-1+glucose medium, a minimal medium that has been used for increased production of tryptophan in E. coli cells (Zeman et al. Folia Microbiol. 35:200-204, (1990)), was prepared as follows. To 800 mL nanopure water the following reagents were added: 2 g (NH4)2SO4 and 13.6 g KH2PO4. The pH was adjusted to 7.0, the volume was increased to 948 mL, and the medium was autoclaved. Following sterilization, 0.2 g MgSO4.7H2O, 0.01 g CaCl2.2H2O, and 0.5 mg FeSO4.7H2O were ad to the medium in a 1.8 mL volume followed by addition of 0.2 mL of Neidhardt's micronutrient solution. Neidhardt, F. C., et al., “Culture medium for Enterobacteria,” J. Bacteriol. 119:736-746 (1974). Neidhardt's medium includes (per liter): 0.18 g (NH4)6(MO7)24.4H2O, 1.24 g H3BO3, 0.36 g CoCl2.6H2O, 0.12 g CuSO4 (anhydrous), 0.8 g MnCl2.4H2O, and 0.14 g ZnSO4.7H2O. A 50% glucose solution was prepared separately and sterile-filtered. Forty mL of glucose solution and 10 mL of 1 M 3-Morpholinopropanesulfonic acid (“MOPS”) buffer were added to the base medium (950 mL) for a 1 L final volume.
Conditions for the treatments included 250 rpm agitation throughout and 37° C. up to induction, then, 30° C. following induction. At an OD600 nm between 0.44-0.52, induction of the plasmid genes was initiated. At induction, 1.0 mM IPTG, 0.5 mM pyridoxine hydrochloride, and 0.2 mL's of Balch's vitamins were added. Additions of 10 g/L L-tryptophan, 10 g/L sodium pyruvate, 0.04 mM pyridoxal-5′-phosphate (“PLP”) and 0.2% Tween® 20 (polyoxyethylene 20-sorbitan monolaurate) were made 3.0 hours following induction. At 3 hours after the initial feeding of pyruvate, another 10 g/L of sodium pyruvate was added to each flask. Some treatments included 2.5 mM sodium decanoate (or sterile, distilled water for the 0 mM decanoate treatment) addition at 3.0 hours following induction.

[2] = E. coli BL21 DE3 aspC proApET32 & pProNde w/o tolC (control)
[3] = E. coli BL21 DE3 aspC proApET32 & tolCpProNde
[4] = ΔAcrAB AspC ProA pProNde del pUC19 (control)
[5] = E. coli BL21 DE3 aspC proA pET32
[6] = E. coli BL21 DE3 ΔcysH::aspC proA pET32

T1 sequence (P0AE06 25-397): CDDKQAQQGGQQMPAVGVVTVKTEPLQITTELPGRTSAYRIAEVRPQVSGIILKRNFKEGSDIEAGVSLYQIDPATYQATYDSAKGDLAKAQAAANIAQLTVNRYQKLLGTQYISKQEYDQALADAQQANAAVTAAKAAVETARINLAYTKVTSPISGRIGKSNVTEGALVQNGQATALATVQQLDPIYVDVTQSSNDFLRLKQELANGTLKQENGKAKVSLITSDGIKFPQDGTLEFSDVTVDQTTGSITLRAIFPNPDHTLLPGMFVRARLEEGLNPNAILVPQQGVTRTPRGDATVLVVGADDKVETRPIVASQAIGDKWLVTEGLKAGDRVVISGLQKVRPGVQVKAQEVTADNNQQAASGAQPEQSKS
T1 sequence (P02930 23-493, further chain): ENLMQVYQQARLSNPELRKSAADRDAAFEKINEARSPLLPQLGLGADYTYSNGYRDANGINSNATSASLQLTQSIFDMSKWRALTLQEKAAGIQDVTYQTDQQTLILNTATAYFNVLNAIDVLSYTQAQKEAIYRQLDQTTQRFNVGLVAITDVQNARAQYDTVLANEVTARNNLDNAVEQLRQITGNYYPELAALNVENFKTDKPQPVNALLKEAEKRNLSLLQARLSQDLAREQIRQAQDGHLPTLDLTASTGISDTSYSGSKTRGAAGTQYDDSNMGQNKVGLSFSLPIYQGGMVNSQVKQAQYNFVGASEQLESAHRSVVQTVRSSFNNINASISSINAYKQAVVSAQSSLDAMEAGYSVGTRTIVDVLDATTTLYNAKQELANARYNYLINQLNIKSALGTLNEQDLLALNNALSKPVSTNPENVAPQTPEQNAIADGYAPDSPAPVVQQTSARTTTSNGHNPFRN
T1 sequence (P31224 whole entry): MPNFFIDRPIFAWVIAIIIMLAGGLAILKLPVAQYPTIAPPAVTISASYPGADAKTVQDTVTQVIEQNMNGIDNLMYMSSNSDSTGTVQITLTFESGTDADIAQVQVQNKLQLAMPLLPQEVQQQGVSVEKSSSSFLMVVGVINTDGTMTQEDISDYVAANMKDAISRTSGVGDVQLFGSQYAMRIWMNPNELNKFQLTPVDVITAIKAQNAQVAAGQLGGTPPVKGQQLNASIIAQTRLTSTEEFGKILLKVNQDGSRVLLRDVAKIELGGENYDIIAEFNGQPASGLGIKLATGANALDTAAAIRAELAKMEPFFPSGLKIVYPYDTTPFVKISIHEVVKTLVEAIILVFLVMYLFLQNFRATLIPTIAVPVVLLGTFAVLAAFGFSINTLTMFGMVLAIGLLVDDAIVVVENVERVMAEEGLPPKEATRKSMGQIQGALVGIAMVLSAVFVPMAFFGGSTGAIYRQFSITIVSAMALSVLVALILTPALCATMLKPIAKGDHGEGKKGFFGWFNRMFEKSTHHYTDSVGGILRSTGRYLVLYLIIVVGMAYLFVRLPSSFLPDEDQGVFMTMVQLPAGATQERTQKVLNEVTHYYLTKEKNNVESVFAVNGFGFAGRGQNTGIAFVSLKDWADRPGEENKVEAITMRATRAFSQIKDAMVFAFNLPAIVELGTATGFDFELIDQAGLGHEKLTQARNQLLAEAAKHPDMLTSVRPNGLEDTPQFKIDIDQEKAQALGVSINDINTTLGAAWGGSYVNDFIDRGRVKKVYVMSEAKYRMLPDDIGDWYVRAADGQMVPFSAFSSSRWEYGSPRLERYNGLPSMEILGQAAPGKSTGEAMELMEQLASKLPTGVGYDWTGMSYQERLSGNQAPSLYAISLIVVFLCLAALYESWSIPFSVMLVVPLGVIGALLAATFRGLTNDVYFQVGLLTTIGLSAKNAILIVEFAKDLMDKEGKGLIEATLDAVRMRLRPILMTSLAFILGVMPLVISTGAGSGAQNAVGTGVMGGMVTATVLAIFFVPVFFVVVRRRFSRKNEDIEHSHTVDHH

SMILES: CCCCCCCCCC(=O)[O-].[Na+] [sodium decanoate]
- OD 600 nm at 19 hours [1]: 1.396
- Monatin/dry cell weight, 25 hr (AcrAB efflux pump; [2]): 0.19 mg monatin/g dcw and 0.17 mg monatin/g dcw
- Monatin/dry cell weight, 50 hr (AcrAB efflux pump; [2]): 0.09 mg monatin/g dcw and 0.11 mg monatin/g dcw
- Monatin/dry cell weight, 25 hr (AcrAB efflux pump; [3]): 8.88 mg monatin/g dcw and 12.19 mg monatin/g dcw
- Monatin/dry cell weight, 50 hr (AcrAB efflux pump; [3]): 7.99 mg monatin/g dcw and 10.23 mg monatin/g dcw
- Monatin/dry cell weight, 25 hr average (AcrAB efflux pump; pProNde w/o tolC (control)): 0.18 mg monatin/g dcw
- Monatin/dry cell weight, 50 hr average (AcrAB efflux pump; pProNde w/o tolC (control)): 0.10 mg monatin/g dcw
- Monatin/dry cell weight, 25 hr average (AcrAB efflux pump; tolCpProNde): 10.53 mg monatin/g dcw
- Monatin/dry cell weight, 50 hr average (AcrAB efflux pump; tolCpProNde): 9.11 mg monatin/g dcw
- Mean monatin per dry cell weight, 24 (E. coli MG1655 ΔAcrAB; [4]): 22.2 mg/g
- Mean monatin per dry cell weight, 30 (E. coli MG1655 ΔAcrAB; [4]): 20.6 mg/g
- Mean monatin per dry cell weight, 72 (E. coli MG1655 ΔAcrAB; [4]): 62.6 mg/g
- Mean monatin per dry cell weight, 24 (E. coli MG1655 ΔAcrAB; ΔAcrAB with marA insert): 54.6 mg/g
- Mean monatin per dry cell weight, 30 (E. coli MG1655 ΔAcrAB; ΔAcrAB with marA insert): 56.0 mg/g
- Mean monatin per dry cell weight, 72 (E. coli MG1655 ΔAcrAB; ΔAcrAB with marA insert): 209.0 mg/g
- Monatin/dry cell wt., 24 hours (E. coli BL21 DE3; [5]): 70.9 mg/g
- Monatin/dry cell wt., 30 hours (E. coli BL21 DE3; [5]): 75.0 mg/g
- Monatin/dry cell wt., 48 hours (E. coli BL21 DE3; [5]): 44.0 mg/g
- Monatin/dry cell wt., 24 hours (E. coli BL21 DE3; [6]): 115.0 mg/g
- Monatin/dry cell wt., 30 hours (E. coli BL21 DE3; [6]): 103.1 mg/g
- Monatin/dry cell wt., 48 hours (E. coli BL21 DE3; [6]): 73.3 mg/g
